Experimental data reported in US7119217B2, “Tri(alkylcarboxylato)gallium (III) products and pharmaceutical compositions containing them” (Genta Incorporated, priority 2002, dated 2006).

Tests used:
[1] = system: Caco-2 monolayer cells; test: Caco-2 apical to basolateral (A to B) absorption/transport assay; conditions: for % Absorbed: Caco-2 monolayer, 37° C., 5% CO2; for % Absorbed / Trsp: apical to basolateral, 2 hours incubation; for Trsp: Caco-2 transport rate; for Ratio (Caco-2 transport ratio): ratio of the transport rate to the transport rate of the reference compound mannitol
Excerpt: (§1) Values for Caco-2 transport are also expressed herein as transport ratios that represent the ratio of the transport rate for the proband (e.g. tri(alkylcarboxylato) gallium(III) compound) to the transport rate of a reference compound. Mannitol was the reference compound used in the calculation of the Caco-2 transport ratios discussed herein.
(§2) The evaluation protocol of the apical to basolateral (A to B) absorption of a test article in Caco-2 monolayer cells is known to those of skill in the art as follows.
(§3) Caco-2 cells are plated in individual Transwells® in 24-well tissue culture plates and cultured for 3 days to establish the cultures. After 3 days, the cells are tested for transepithelial electrical resistance (TEER) as a measure of the formation of tight junctions between cells. Only cells with a TEER equal to or greater than about 330 Ω·cm^2 cm^2 are used. The proband or the control article (reference) is applied to the apical side of Caco-2 cells and incubated for 2 hours (37° C., 5% CO2). At t=2 hr, the media in each well are collected and stored until later analysis. Aliquots of the dosing solution are retained for analysis along with the samples.
(§4) For test samples, the analysis is repeated three times while the N value for all the control groups is six. The controls are [^3H]propranolol for fast transport and [^3H]mannitol for slow transport.
(§5) The gallium product proband and dosing solution samples are analyzed by inductive coupled plasma optical emission spectrometry (ICP-OCP) to measure gallium concentration. Any non-gallium test articles and dosing solution samples are analyzed by HPLC. Positive controls are analyzed using scintillation counting.

[2] = as above; conditions: human, Caco-2
Excerpt: as §1, §2, §3, §4, §5

Row | % Absorbed [1] [%] | Trsp [1] [nm/s] | Ratio (Caco-2 transport ratio) [1] | Papp A→B at 2 h [2] [×10⁻⁶ cm/s] | Compound
1 | 9.890 | 42.930 | 3.8 |  | Tri(octanoato) Gallium (III) Product [Example 1]
2 | 2.603 |  | 1 | 1.13 | OC[C@@H](O)[C@@H](O)[C@H](O)[C@H](O)CO [Mannitol]
3 | 24.793 | 107.610 | 9.5 |  | Cc1occc(=O)c1[O-].Cc1occc(=O)c1[O-].Cc1occc(=O)c1[O-].[Ga+3] [Gallium Maltolate]

The remaining lines, values behind:

Row | Compound | % Absorbed [1] [%] | Trsp [1] [nm/s] | Ratio (Caco-2 transport ratio) [1] | Papp A→B at 2 h [2] [×10⁻⁶ cm/s]
4 | Tri(palmitato) Gallium (III) Product [Example 3] | 31.579 | 137.060 | 12.1 | 
5 | CC(C)NCC(O)COc1cccc2ccccc12 (stereo not drawn) [Propranalol] | 24.118 | 104.679 | 9.3 | 
6 | Tri(palmitato) Gallium (III) Product [Example 2] | 72.000 | 312.500 | 27.7 | 
